# Active and inactive are the calls of the source. Cut-off read from the data, not from the text of the source, for most assays here: actives have a measured EC50 and inactives only a lower limit.
# How the values were obtained:
# [1] = molecular target: T1, Heat shock factor protein 1 (Mus musculus, UniProt P38532); test: decrease of HSF1-responsive luciferase luminescence – cell-based, NIH3T3, dose retest, confirmation (AID 2382); assay type: functional;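 note: NIH3T3 fibroblasts with HSF1-driven luciferase reporter stressed by proteasome inhibitor MG132; luminescence from HSF1-driven luciferase expression after 8 hours of MG132 stress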
# T1 sequence (P38532 whole entry): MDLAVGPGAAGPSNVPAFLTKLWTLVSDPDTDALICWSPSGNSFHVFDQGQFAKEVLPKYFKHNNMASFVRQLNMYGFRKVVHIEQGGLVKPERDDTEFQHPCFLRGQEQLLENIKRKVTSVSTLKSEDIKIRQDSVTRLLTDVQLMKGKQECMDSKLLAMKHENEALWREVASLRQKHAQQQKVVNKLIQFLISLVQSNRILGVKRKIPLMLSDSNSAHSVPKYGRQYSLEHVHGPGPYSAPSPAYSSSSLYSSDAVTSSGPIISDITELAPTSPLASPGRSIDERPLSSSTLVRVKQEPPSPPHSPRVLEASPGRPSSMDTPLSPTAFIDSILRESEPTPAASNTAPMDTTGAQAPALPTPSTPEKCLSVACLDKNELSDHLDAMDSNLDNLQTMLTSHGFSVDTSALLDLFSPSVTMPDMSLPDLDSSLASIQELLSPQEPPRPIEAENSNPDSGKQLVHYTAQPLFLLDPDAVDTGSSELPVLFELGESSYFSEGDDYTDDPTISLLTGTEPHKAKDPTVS
# [2] = molecular target: T2, Corticotropin-releasing factor receptor 2/Corticotropin-releasing factor-binding protein (Homo sapiens, UniProt P24387+Q13324); test: activators of CRF receptor 2 with binding protein – uHTS hits, confirmation (AID 602473); assay type: functional; settings: read-out: EC50_Mean
# T2 sequence (Q13324 whole entry): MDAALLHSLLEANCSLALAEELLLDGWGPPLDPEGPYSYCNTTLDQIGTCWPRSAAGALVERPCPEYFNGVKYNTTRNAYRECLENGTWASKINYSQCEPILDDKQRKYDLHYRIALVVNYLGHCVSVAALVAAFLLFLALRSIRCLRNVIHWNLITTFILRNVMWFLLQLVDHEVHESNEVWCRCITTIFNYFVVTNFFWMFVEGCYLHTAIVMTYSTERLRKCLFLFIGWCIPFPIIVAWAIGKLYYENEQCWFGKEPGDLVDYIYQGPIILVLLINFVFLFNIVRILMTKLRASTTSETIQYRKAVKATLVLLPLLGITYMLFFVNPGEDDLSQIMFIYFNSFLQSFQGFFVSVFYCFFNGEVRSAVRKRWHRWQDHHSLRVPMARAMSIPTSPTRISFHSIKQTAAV
# T2 sequence (P24387 whole entry): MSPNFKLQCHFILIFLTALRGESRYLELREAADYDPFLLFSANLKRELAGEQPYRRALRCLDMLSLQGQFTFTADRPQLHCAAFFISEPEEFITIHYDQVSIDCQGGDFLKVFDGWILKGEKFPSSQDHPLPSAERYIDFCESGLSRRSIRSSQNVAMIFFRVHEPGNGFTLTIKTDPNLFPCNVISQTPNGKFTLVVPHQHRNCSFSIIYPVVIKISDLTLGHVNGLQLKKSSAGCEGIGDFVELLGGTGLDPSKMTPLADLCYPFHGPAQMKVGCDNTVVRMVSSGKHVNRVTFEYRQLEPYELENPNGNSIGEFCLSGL
# [3] = molecular target: T2, Corticotropin-releasing factor receptor 2/Corticotropin-releasing factor-binding protein; test: Dose Response confirmation of uHTS hits for small molecule antagonists of the CRF-binding protein and CRF-R2 receptor complex.; assay type: functional; settings: read-out: IC50_Mean
# [4] = molecular target: T3, Ubiquitin-conjugating enzyme E2 N (Homo sapiens, UniProt P61088); assay type: functional;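 note: Dose-response confirmation in a TR-FRET assay detecting UBC13-driven polyubiquitin chain formation, inhibition measured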
# T3 sequence (P61088 whole entry): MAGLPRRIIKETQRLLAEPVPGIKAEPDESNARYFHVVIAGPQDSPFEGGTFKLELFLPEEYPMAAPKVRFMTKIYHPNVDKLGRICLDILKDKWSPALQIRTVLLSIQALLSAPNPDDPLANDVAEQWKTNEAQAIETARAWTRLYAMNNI
# [5] = test system: Streptococcus sp. 'group A'; test: Streptococcus pyogenes SK(-)GAS viability under kanamycin – luminescence, BacTiterGlo, confirmation, counter-screen for streptokinase expression inhibitor project, dose response (AID 1900); assay type: functional, organism-based
# [6] = test system: Streptococcus; test: GAS UMAA2166 growth inhibition – luminescence, BacTiterGlo, counter-screen for streptokinase expression inhibitor project, dose response (AID 1915); assay type: functional, organism-based;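 note: potency for reduction of bacterial viability or growth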
# [7] = Luminescence Cell-Based Dose Retest to Confirm Inhibitors of Cancer Stem Cells. [Related pubchem assays (depositor defined):AID2717, AID2721]; assay type: functional; settings: Homo sapiens
# [8] = molecular target: T4, Streptokinase A (Streptococcus pyogenes serotype M1, UniProt P10520); test: viability-normalized secreted streptokinase activity reduction – plasminogen activation absorbance, OD405, dose response (AID 1914); assay type: functional, Streptococcus pyogenes M1 GAS;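 note: secreted streptokinase activity via plasminogen activation per viability signal from cell pellet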
# T4 sequence (P10520 whole entry): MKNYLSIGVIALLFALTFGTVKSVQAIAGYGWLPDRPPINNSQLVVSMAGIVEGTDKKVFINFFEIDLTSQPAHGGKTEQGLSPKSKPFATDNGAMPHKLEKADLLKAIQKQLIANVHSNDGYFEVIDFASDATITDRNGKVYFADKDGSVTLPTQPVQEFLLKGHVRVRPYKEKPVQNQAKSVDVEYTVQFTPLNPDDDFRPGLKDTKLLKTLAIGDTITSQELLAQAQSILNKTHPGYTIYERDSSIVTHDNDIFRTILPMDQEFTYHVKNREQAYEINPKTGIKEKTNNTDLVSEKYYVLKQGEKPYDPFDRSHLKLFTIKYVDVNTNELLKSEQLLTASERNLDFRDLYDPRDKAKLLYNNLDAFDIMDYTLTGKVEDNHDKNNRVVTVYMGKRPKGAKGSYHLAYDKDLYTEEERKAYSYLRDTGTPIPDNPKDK
# [9] = molecular target: Cytochrome P450 3A4 (Homo sapiens, UniProt P08684);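 note: CYP3A4 tested as one member of a cytochrome P450 panel screen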
# Sequence of Cytochrome P450 3A4 (P08684 whole entry): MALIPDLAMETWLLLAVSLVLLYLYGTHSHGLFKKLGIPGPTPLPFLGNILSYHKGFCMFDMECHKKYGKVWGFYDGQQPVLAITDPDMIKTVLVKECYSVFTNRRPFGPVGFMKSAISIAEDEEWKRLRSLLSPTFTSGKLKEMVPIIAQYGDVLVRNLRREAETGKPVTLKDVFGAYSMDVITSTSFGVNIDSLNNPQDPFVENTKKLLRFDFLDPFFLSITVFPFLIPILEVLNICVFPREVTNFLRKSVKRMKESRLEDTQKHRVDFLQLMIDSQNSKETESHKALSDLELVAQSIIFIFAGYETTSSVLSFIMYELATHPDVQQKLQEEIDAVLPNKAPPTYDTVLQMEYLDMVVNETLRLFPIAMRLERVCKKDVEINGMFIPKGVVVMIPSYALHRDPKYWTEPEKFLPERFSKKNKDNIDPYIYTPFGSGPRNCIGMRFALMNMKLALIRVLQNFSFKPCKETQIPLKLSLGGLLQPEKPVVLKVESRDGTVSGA
# [10] = molecular target: Cytochrome P450 2C9 (Homo sapiens, UniProt P11712)
# Sequence of Cytochrome P450 2C9 (P11712 whole entry): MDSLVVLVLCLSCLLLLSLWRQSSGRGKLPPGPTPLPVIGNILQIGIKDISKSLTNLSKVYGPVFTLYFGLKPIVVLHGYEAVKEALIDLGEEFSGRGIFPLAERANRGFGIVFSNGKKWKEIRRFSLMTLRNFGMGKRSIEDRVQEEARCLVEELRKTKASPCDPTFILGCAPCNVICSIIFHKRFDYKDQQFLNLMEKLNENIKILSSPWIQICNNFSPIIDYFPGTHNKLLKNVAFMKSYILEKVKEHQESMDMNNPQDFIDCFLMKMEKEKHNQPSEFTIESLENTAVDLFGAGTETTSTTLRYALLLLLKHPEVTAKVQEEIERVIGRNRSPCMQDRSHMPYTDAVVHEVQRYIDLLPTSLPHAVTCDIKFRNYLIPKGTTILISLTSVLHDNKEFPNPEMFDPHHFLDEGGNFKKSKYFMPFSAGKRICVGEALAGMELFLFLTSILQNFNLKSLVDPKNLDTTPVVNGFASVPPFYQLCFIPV
# [11] = molecular target: T5, Cytochrome P450 1A2 (Homo sapiens, UniProt P05177);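 note: PubChem cytochrome P450 panel assay, CYP1A2 panel member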
# T5 sequence (P05177 whole entry): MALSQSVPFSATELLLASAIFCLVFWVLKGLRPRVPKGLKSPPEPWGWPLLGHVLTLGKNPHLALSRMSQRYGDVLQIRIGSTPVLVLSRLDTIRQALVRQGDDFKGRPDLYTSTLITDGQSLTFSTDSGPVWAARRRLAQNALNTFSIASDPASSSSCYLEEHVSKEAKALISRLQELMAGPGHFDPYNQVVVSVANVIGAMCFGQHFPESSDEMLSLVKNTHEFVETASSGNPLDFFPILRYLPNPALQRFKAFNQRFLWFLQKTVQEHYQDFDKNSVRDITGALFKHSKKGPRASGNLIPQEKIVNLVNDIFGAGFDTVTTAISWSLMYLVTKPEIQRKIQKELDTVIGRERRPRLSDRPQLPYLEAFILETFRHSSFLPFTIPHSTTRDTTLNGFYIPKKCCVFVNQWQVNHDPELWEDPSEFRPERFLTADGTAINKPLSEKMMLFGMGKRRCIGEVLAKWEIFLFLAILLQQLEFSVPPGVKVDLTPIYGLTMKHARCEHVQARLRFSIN
# [12] = molecular target: Paired box protein Pax-8 (Homo sapiens, UniProt Q06710); test: PAX8 transcriptional activity inhibition in RMG-I – RMG-I cells, luciferase, cherry-pick, dose response (AID 687027); assay type: functional, cell-based;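 note: luciferase reporter driven by Pax8 target thyroperoxidase promoter measured by SteadyGlo luminescence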
# Sequence of Paired box protein Pax-8 (Q06710 whole entry): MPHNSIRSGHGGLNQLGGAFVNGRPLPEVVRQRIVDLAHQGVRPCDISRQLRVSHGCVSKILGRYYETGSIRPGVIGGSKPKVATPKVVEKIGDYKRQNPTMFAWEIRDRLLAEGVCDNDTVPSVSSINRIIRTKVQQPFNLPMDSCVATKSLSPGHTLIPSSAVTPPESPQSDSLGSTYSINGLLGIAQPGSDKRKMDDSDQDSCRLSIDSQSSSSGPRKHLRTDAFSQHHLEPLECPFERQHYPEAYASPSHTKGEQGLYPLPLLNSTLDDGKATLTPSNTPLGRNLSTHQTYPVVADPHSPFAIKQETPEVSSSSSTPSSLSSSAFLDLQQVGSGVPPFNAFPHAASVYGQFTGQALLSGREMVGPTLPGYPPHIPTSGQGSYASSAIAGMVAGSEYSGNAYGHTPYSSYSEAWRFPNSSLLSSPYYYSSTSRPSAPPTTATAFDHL
# [13] = test system: H4; test: Luminescence Cell-Based Dose Response HTS to Identify Activators of 5'UTR Stem-Loop Driven Prion Protein mRNA Translation in H4 Neuroglioblastoma Cells. [Related pubchem assays: 1829 (Project Summary), 1814 (Primary HTS)]; assay type: functional; settings: Homo sapiens
# [14] = NIH3T3 cell viability loss – ATP luminescence, mouse fibroblasts, counter-screen, dose response (AID 2010); assay type: functional, cell-based; settings: NIH3T3;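 note: cells exposed to compound for about 90 hours before reading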
# [15] = Trypanosoma cruzi growth suppression in host cells – NIH3T3 host cells, beta-gal luminescence, confirmation (AID 2044); assay type: functional, cell-based;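 note: intracellular parasites grown in NIH/3T3 mouse fibroblasts as host cells; luminescent beta-galactosidase reporter signal from transgenic T. cruzi replicating inside host cells; inhibitors lower the luminescence signal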
structure (smiles),measurement,setting,value
Cc1nc(NC(C)c2ccccc2)sc1C(=O)Nc1ccccc1 (stereo not given),EC50,[1],> 195 µM (not active)
Cc1ccc(CSCC(=O)N(C)CC(=O)Nc2ccc(C)cc2)cc1,EC50,[1],> 195 µM (not active)
Cc1ccc(NC(=O)C2CCCN2C(=O)c2cccs2)cc1C (stereo not given),EC50,[2],> 53 µM (inactive)
same,IC50,[3],> 47.1 µM (inactive)
Cc1nc2ccc(S(=O)(=O)NC(C(=O)NCc3cccs3)C(C)C)cc2s1 (stereo not given),EC50,[1],> 195 µM (not active)
CCOC(=O)N1CCc2c(sc(NC(=O)CN(CC)CC)c2C#N)C1,IC50,[4],> 20 µM (inactive)
Cc1cc([N+](=O)[O-])ccc1NCc1ccccc1[N+](=O)[O-],EC50,[2],> 53 µM (inactive)
same,IC50,[3],> 47.1 µM (inactive)
O=C(CCC(=O)c1ccc(Br)cc1)Nc1cccnc1,EC50,[1],> 195 µM (not active)
CCC(c1nnc(SCC(=O)Nc2c(F)cccc2F)n1Cc1ccccc1)N(C)C (stereo not given),EC50,[2],> 53 µM (inactive)
same,IC50,[3],> 47.1 µM (inactive)
COc1ccc(C(=O)c2c[nH]cc2-c2ccccc2)cc1,EC50,[1],> 195 µM (not active)
Cc1c(C)n(Cc2ccccc2)c2ncnc(N)c12,IC50,[4],> 20 µM (inactive)
CCC(CC)c1nc(C#N)c(NCc2ccccc2)o1,EC50,[1],107 µM (active)
CCCSc1nsc(NC(=O)C(c2ccccc2)c2ccccc2)n1,EC50,[5],2.73 µM (active)
same,EC50,[6],6.12 µM (active)
same,AC50,[7],2.87 µM (active)
same,EC50,[8],11.3 µM (active)
CCCC[C@@H]1C[C@H]1C(NC(=O)c1ccccc1)c1ccc(-c2ccccc2)cc1 (stereo not given in full),AC50,[9],7.94 µM (inconclusive)
same,AC50,[10],2 µM (inconclusive)
same,AC50,[11],0.501 µM (inconclusive)
COc1ccc(N2CCN(S(=O)(=O)c3cc4c(cc3C)N(C(C)=O)CCO4)CC2)cc1,EC50,[1],> 195 µM (not active)
COc1cc(C=O)ccc1Oc1cnccn1,EC50,[2],> 53 µM (inactive)
same,IC50,[3],> 47.1 µM (inactive)
O=C1CC(Nc2ccccc2)=NN1c1ccccc1,AC50,[9],28.2 µM (inconclusive)
same,AC50,[7],3.96 µM (active)
CCCCNC(=O)C(Sc1ccccc1)c1ccccc1 (stereo not given),AC50,[12],65.4 µM (active)
COc1ccc(CNc2cc([N+](=O)[O-])ccc2OC)cc1,EC50,[2],> 53 µM (inactive)
same,IC50,[3],11 µM (active)
CN(C(=O)CCNC(=O)Cn1cnc2ccccc2c1=O)c1ccccc1F,EC50,[1],> 195 µM (not active)
Cc1ccc(NC(=S)NNC(=O)c2nnn(-c3ccccc3)c2C)cc1,IC50,[4],> 20 µM (inactive)
COc1ccc(Br)cc1CNC(=O)CCN1C(=O)COc2ccccc21,EC50,[1],> 195 µM (not active)
NN=C(S)Nc1ccccc1Cl,EC50,[1],> 195 µM (not active)
Cc1nc2cnc(Nc3ccccc3)nc2n(CCc2ccccc2)c1=O,AC50,[9],10 µM (inconclusive)
same,AC50,[11],2.51 µM (inconclusive)
COc1cc(NC(S)=NCc2ccco2)cc(OC)c1,EC50,[2],> 53 µM (inactive)
same,IC50,[3],> 47.1 µM (inactive)
Cc1ccc(CNC(=O)/C=C/c2cccs2)cc1,EC50,[13],1.28 µM (active)
COC(=O)c1cc(S(=O)(=O)NCc2ccc(F)cc2)cn1C,EC50,[1],> 195 µM (not active)
CC1CCc2[nH]c3ccc(C(=O)N(C)CC(=O)Nc4cccc(F)c4)cc3c2C1 (stereo not given),EC50,[2],> 53 µM (inactive)
same,IC50,[3],> 47.1 µM (inactive)
CCCNCC1C(Oc2ccc(Cl)cc2Cl)C(=O)N1c1cccc(C)c1C (stereo not given),EC50,[14],> 60 µM (not active)
same,EC50,[15],3.52 µM (active)
same,AC50,[7],5.78 µM (active)
O=C(Nc1cccc(O)c1)c1cc(-c2ccccc2Cl)on1,EC50,[1],> 195 µM (not active)
COc1ccc(NC(=O)c2[nH]cnc2C(=O)NCc2ccccc2)cc1,IC50,[4],> 20 µM (inactive)
Cc1nn(Cc2ccc(Cl)cc2)c(C)c1NC(=O)c1cc(-c2ccc3c(c2)OCO3)on1,EC50,[14],3.87 µM (active)
same,EC50,[15],1.99 µM (active)
same,AC50,[7],0.486 µM (active)
COc1ccccc1C(=O)Nc1nnc(SCC(=O)NCC2CCCO2)s1 (stereo not given),EC50,[13],> 120 µM (not active)
same,EC50,[5],> 150 µM (not active)
same,EC50,[6],> 150 µM (not active)
same,EC50,[8],> 150 µM (not active)
COc1ccc(/C=C/C(=O)N(C)CC(=O)Nc2cccc(F)c2)cc1S(=O)(=O)N1CCCCC1,EC50,[2],> 53 µM (inactive)
same,IC50,[3],> 47.1 µM (inactive)
CSCCC(NC(=O)c1ccccc1Br)C(=O)NNC(=O)c1csc(N2CCOCC2)n1 (stereo not given),IC50,[4],> 20 µM (inactive)
COc1cc(OC)cc(-c2sc3ccc(OC)cc3c2-c2ccc(O)cc2)c1,AC50,[7],2.46 µM (active)
CCCCCC(=O)N1CC2(CC(c3cccc(NC(=O)CC)c3)=NO2)C[C@H]1C(N)=O (stereo not given in full),EC50,[2],> 53 µM (inactive)
same,IC50,[3],> 47.1 µM (inactive)
Cc1cn(CC(=O)N2CCN(c3ccccn3)CC2)c(=O)[nH]c1=O,EC50,[2],> 53 µM (inactive)
same,IC50,[3],> 47.1 µM (inactive)
O=C(N/N=C/c1ccc(O)cc1)c1[nH]c2ccc(Br)cc2c1-c1ccccc1,AC50,[12],4.43 µM (active)
same,EC50,[1],11.4 µM (active)
COc1cccc(-c2ccc3c(c2)[C@@H]2[C@@H](CCN2S(=O)(=O)c2ccccc2C)[C@H](CO)N3C)c1,AC50,[12],10.4 µM (active)
CCCCCCCCCCS(=O)(=O)N/N=C/c1ccc([N+](=O)[O-])cc1,AC50,[7],8.29 µM (active)
